By pKi is commonly meant the Ki on a negative log10 scale, so that one unit is a factor of ten.

pKi: −log10 of the molar value.

T1 sequence (P97639 whole entry): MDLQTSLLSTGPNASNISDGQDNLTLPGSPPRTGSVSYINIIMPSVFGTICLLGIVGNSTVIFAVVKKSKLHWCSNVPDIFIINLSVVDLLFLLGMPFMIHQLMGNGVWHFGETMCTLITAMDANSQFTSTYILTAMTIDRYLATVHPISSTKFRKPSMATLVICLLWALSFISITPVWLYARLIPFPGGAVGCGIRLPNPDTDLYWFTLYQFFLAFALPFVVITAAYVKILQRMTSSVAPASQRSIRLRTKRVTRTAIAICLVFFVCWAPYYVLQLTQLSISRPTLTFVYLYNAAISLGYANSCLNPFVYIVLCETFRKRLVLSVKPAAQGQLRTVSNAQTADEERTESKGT

The first test concerns the target T1, rat MCH1 receptor (Rattus norvegicus, UniProt P97639).
T1 construct: expressed in transfected cells; host or cells: Human embryonic kidney Peak rapid 293 cells (Peakr293), transient, calcium phosphate; membranes
Nature of the test: Radioligand binding assay at cloned rat MCH1 receptor ([3H]Compound A displacement). The conditions noted are these: KI, cloned rat MCH1, membranes of transfected Peakr293 cells, 0.08 nM [3H]Compound A, 25° C., 90 minutes. How it is done:
For binding assays, pellets of transfected cells are suspended in ice-cold buffer (20 mM Tris.HCl, 5 mM EDTA, pH 7.4) and homogenized by sonication for 7 sec. The cell lysates are centrifuged at 200×g for 5 min at 4° C. The supernatants are then centrifuged at 40,000×g for 20 min at 4° C. The resulting pellets are washed once in the homogenization buffer and suspended in binding buffer (see methods for radioligand binding). Protein concentrations are determined by the method of Bradford (1976) using bovine serum albumin as the standard. Binding assays are usually performed immediately, however it is possible to prepare membranes in batch and store frozen in liquid nitrogen for future use.
Radioligand binding assays for the rat MCH1 receptor were carried out using plasmid pcDNA3.1-rMCH1-f (ATCC Patent Deposit Designation No. PTA-3505). Plasmid pcDNA3.1-rMCH1-f comprises the regulatory elements necessary for expression of DNA in a mammalian cell operatively linked to DNA encoding the rat MCH1 receptor so as to permit expression thereof. Plasmid pcDNA3.1-rMCH1-f was deposited on Jul. 5, 2001, with the American Type Culture Collection (ATCC), 12301 Parklawn Drive, Rockville, Md. 20852, U.S.A. under the provisions of the Budapest Treaty for the International Recognition of the Deposit of Microorganisms for the Purposes of Patent Procedure and was accorded ATCC Patent Deposit Designation No. PTA-3505.
Human embryonic kidney Peak rapid 293 cells (Peakr293 cells) were transiently transfected with DNA encoding the MCH1 receptor utilizing the calcium phosphate method and cell membranes were prepared as described above. Binding experiments with membranes from Peakr293 cells transfected with the rat MCH1 receptor were performed with 0.08 nM [^3H]Compound A (custom labeled by Amersham) (the synthesis of Compound A is described in detail below) using an incubation buffer consisting of 50 mM Tris pH 7.4, 10 mM MgCl2, 0.16 mM PMSF, 1 mM 1,10 phenantroline and 0.2% BSA. Binding was performed at 25° C. for 90 minutes. Incubations were terminated by rapid vacuum filtration over GF/C glass fiber filters, presoaked in 5% PEI using […] Tris pH 7.4 as wash buffer. In all experiments, nonspecific binding is defined using […] Compound A.
The compounds described above were assayed using cloned rat MCH1.
`O=C(NCCCCCN1CCC2(C=Cc3ccccc32)CC1)C(c1ccccc1)c1ccccc1` [Example 40, 2,2-DIPHENYL-N-(5-(SPIRO[INDENE-1,4′-PIPERIDINE]-10-YL)PENTYL)ACETAMIDE] showed a pKi of 6.42.
On the same count and under the same terms, in the case of `O=C(NCCN1CCC2(CCc3ccccc32)CC1)c1cccc2ccccc12` [Example 42, NAPHTHYL-N-(2-(SPIRO[INDANE-1,4′-PIPERIDINE]-10-YLETHYL)CARBOXAMIDE] it was 6.26; in that of `CC(C)(C(=O)NCCCN1CCC2(CCc3ccccc32)CC1)c1ccc(Cl)cc1` [Example 46], 7.08.
Same read-out and setting: as for `Cc1ccc(C(C(=O)NCCCN2CCC3(CCc4ccccc43)CC2)c2ccc(C)cc2)cc1` [Example 48, 2,2-BIS(4-METHYL)PHENYL)-N-(3-(SPIRO[INDANE-1,4′-PIPERIDINE]-10-YL)PROPYL)ACETAMIDE], the figure is 7.53; as for `O=C(NCCCN1CCC2(CCc3ccccc32)CC1)C(c1ccccc1)(c1ccccc1)c1ccccc1` [Example 49, 2,2,2-TRIPHENYL-N-(3-(SPIRO[INDANE-1,4′-PIPERIDINE]-10-YL)PROPYL)ACETAMIDE], 6.92; as for `O=C(NCCCN1CCC2(CCc3ccccc32)CC1)C1(c2ccc(F)cc2)CCCC1` [Example 54, [(4-FLUOROPHENYL)CYCLOPENTYL]-N-(3-(SPIRO[INDANE-1,4′-PIPERIDINE]-10-YL)PROPYL)CARBOXAMIDE], 6.68.
Same read-out and setting: in the case of `O=C(NCCCN1CCC2(CCc3ccccc32)CC1)C1(c2ccc(Cl)cc2)CCC1` [Example 59, [1-(4-CHLOROPHENYL)CYCLOBUTYL]-N-(3-(SPIRO[INDANE-1,4′-PIPERIDINE]-10-YL)PROPYL)CARBOXAMIDE] it was 6.76; in that of `CC(C(=O)NCCCN1CCC2(C=Cc3ccccc32)CC1)(c1ccccc1)c1ccccc1` [Example 63, 2,2-DIPHENYL-N-(3-(SPIRO[INDENE-1,4′-PIPERIDINE]-10-YL)PROPYL)PROPANAMIDE], 7.34.
`O=C(NCCCN1CCC2(C=Cc3ccccc32)CC1)C(c1ccccc1)(c1ccccc1)c1ccccc1` [Example 64, 2,2,2-TRIPHENYL-N-(3-(SPIRO[INDENE-1,4′-PIPERIDINE]-10-YL)PROPYL)ACETAMIDE] showed a pKi of 7.44.

The same test, now with this note: cloned rat MCH1, membranes of transfected Peakr293 cells, 0.08 nM [3H]Compound A, 25° C., 90 minutes; read-out: KI.
With `Cc1onc(-c2ccccc2Cl)c1C(=O)NCCCCN1CCC2(CCc3ccccc32)CC1` [Example 35, [3-(2-CHLOROPHENYL)-5-METHYLISOXAZOL-4-YL]-N-(4-(SPIRO[INDANE-1,4′-PIPERIDINE]-10-YL)BUTYL)CARBOXAMIDE], the pKi is 6.08.
As for `O=C(NCCCCCN1CCC2(C=Cc3ccccc32)CC1)c1sc2ccccc2c1Cl` [Example 36, (3-CHLOROBENZO[B]THIOPHEN-2-YL)-N-(5-(SPIRO[INDENE-1,4′-PIPERIDINE]-10-YL)PENTYL)CARBOXAMIDE], the pKi is 6.13.
With `CC(C)(C)c1cc(C(=O)NCCCCCN2CCC3(C=Cc4ccccc43)CC2)n(Cc2ccccc2)n1` [Example 37, [3-(TERT-BUTYL)-1-BENZYL)PYRAZOL-5-YL]-N-(5-(SPIRO[INDENE-1,4′-PIPERIDINE]-10-YL)PENTYL)CARBOXAMIDE], the pKi is 6.10.
Same read-out and setting: in the case of `O=C(NCCCN1CCC2(C=Cc3ccccc32)CC1)C(c1ccccc1)c1ccccc1` [Example 38, 2,2-DIPHENYL-N-(3-SPIRO[INDENE-1,4′-PIPERIDINE]-10-YLPROPYL)ACETAMIDE] it was 8.19.
On the same count and under the same terms, in the case of `O=C(NCCCN1CCC2(CCCc3ccccc32)CC1)C(c1ccccc1)c1ccccc1` [Example 39, 2,2-DIPHENYL-N-(3-SPIRO[1,2,3,4-TETRAHYDRONAPHTHALENE-1,4′-PIPERIDINE]-11-YLPROPYL)ACETAMIDE] it was 6.89.
Still for that read-out and setting: in the case of `O=C(NCCN1CCC2(CCc3ccccc32)CC1)C(c1ccccc1)c1ccccc1` [Example 41, 2,2-DIPHENYL-N-(2-(SPIRO[INDANE-1,4′-PIPERIDINE]-10-YLETHYL) ACETAMIDE] it was 6.99; in that of `O=C(NCCN1CCC2(CCc3ccccc32)CC1)c1cccc(Cl)c1` [Example 43, (3-CHLOROPHENYL)-N-(2-(SPIRO[INDANE-1,4′-PIPERIDINE]-10-YLETHYL)CARBOXAMIDE], 6.29.
As for `O=C(NCCN1CCC2(CCc3ccccc32)CC1)c1cc(Cl)cc(Cl)c1` [Example 44, (3,5-DICHLOROPHENYL)-N-(2-(SPIRO[INDANE-1,4′-PIPERIDINE]-10-YLETHYL)CARBOXAMIDE], the pKi was 6.74.
On the same count and under the same terms, in the case of `O=C(NCCN1CCC2(CCc3ccccc32)CC1)c1ccc(F)c(F)c1` [Example 45, (3,4-DIFLUOROPHENYL)-N-(2-(SPIRO[INDANE-1,4′-PIPERIDINE]-10-YLETHYL)CARBOXAMIDE] it was 6.10.
On the same count and under the same terms, as for `CC(C(=O)NCCCN1CCC2(CCc3ccccc32)CC1)(c1ccccc1)c1ccccc1` [Example 47, 2,2-DIPHENYL-N-(3-(SPIRO[INDANE-1,4′-PIPERIDINE]-10-YL)PROPYL)PROPANAMIDE], the figure is 6.81.
On the same count and under the same terms, in the case of `CC(C(=O)NCCCN1CCC2(CCc3ccccc32)CC1)c1ccc(Cl)cc1` (centres unmarked) [Example 50, 2-(4-CHLOROPHENYL)-N-(3-(SPIRO[INDANE-1,4′-PIPERIDINE]-10-YL)PROPYL)PROPANAMIDE] it was 6.71; in that of `O=C(NCCCN1CCC2(CCc3ccccc32)CC1)C1(c2ccc(Cl)cc2)CCCC1` [Example 52, [1-(4-CHLOROPHENYL)CYCLOPENTYL]-N-(3-(SPIRO[INDANE-1,4′-PIPERIDINE]-10-YL)PROPYL)CARBOXAMIDE], 6.95.
On to `O=C(NCCCN1CCC2(CCc3ccccc32)CC1)C1(c2ccc(Cl)cc2)CCCCC1` [Example 53, 1-[(4-CHLOROPHENYL)CYCLOHEXYL]-N-(3-(SPIRO[INDANE-1,4′-PIPERIDINE]-10-YL)PROPYL)CARBOXAMIDE], for which the pKi was 7.24.
The same measure, in the same setting: as for `O=C(NCCCN1CCC2(CCc3ccccc32)CC1)C(c1ccc(Cl)cc1)c1ccc(Cl)cc1` [Example 55, 2,2-BIS(4-CHLOROPHENYL)-N-(3-(SPIRO[INDANE-1,4′-PIPERIDINE]-10-YL)PROPYL)ACETAMIDE], the figure is 8.07; as for `O=C(NCCCN1CCC2(CCc3ccccc32)CC1)C1(c2ccc(F)cc2)CCCCC1` [Example 56, [1-(4-FLUOROPHENYL)CYCLOHEXYL]-N-(3-(SPIRO[INDANE-1,4′-PIPERIDINE]-10-YL)PROPYL)CARBOXAMIDE], 6.97; as for `O=C(NCCCN1CCC2(CCc3ccccc32)CC1)C(c1ccc(F)cc1)c1ccc(F)cc1` [Example 57, 2,2-BIS(4-FLUOROPHENYL)-N-(3-(SPIRO[INDANE-1,4′-PIPERIDINE]-10-YL)PROPYL)ACETAMIDE], 8.38.
The same measure, in the same setting: in the case of `O=C(NCCCN1CCC2(CCc3ccccc32)CC1)C1(c2ccc(Cl)cc2)CC1` [Example 58, [1-(4-CHLOROPHENYL)CYCLOPROPYL]-N-(3-(SPIRO[INDANE-1,4′-PIPERIDINE]-10-YL)PROPYL)CARBOXAMIDE] it was 6.82; in that of `O=C(NCCCCN1CCC2(CCc3ccccc32)CC1)c1ccc(F)c(F)c1` [Example 60, (3,4-DIFLUOROPHENYL)-N-(4-(SPIRO[INDANE-1,4′-PIPERIDINE]-10-YL)BUTYL)CARBOXAMIDE], 7.37.
On the same count and under the same terms, in the case of `O=C(NCCCN1CCC2(CC1)Cc1ccccc1C2)C(c1ccccc1)c1ccccc1` [Example 61, 2,2-DIPHENYL-N-(3-(SPIRO[INDANE-2,4′-PIPERIDINE]-10-YL)PROPYL)ACETAMIDE] it was 7.31; in that of `Cc1ccc(C(C(=O)NCCCN2CCC3(C=Cc4ccccc43)CC2)c2ccc(C)cc2)cc1` [Example 62, 2,2-BIS(4-METHYL)PHENYL)-N-(3-(SPIRO[INDENE-1,4′-PIPERIDINE]-10-YL)PROPYL)ACETAMIDE], 7.59.

For the origin of these results see patent US7335665B2, “Spirocyclic piperidines as MCH1 antagonists and uses thereof” (H - Lundbeck A/S, priority 2003, dated 2008).
